Patent US20020182619A1, “Compositions, kits, and methods for identification, assessment, prevention, and therapy of ovarian cancer” (Millennium Pharmaceuticals, Inc., priority 2000, published 2002)

Test system: ovarian cell line (OVCAR3)
Assay: Transcript profiling on nylon arrays of OVCAR3 untreated or treated with LPA, LYS294002, or both
Type: cell-based
Protocol: Nylon arrays were prepared by spotting purified PCR product onto a nylon membrane using a robotic gridding system linked to a sample database. Several thousand clones were spotted on each nylon filter.
RNA or DNA from cell lines were used for hybridization against the nylon arrays. The RNA or DNA is labeled utilizing an in vitro reverse transcription reaction that contains a radiolabeled nucleotide that is incorporated during the reaction. Hybridization experiments were carried out by combining labeled RNA or DNA samples with nylon filters in a hybridization chamber. Duplicate, independent hybridization experiments were performed to generate transcriptional profiling data. See, Nature Genetics, 21 (1999).
The level of expression of ˜25,000 potential markers were measured in 4 samples, an untreated ovarian cell line (OVCAR3), OVCAR3 treated with LPA, OVCAR3 treated with LYS294002, and OVCAR3 treated with LPA and LYS294002. LYS294002 is a specific inhibitor of the P13Kinase pathway.
Table 1 represents the markers that are expressed at least 2.5 fold greater in the OVCAR3 cell line treated with LPA as compared to the untreated cell line (column G). Table 1 also lists the expression value of these potential marker in the 4 samples, untreated OVCAR3, OVCAR3 treated with LPA, OVCAR3 treated with LYS294002, and OVCAR3 treated with LYS294002 and LPA (columns C-F). […]

Which “UPinLPA vs OVCAR3: marker expression in the OVCAR3 cell line treated with LPA as compared to the untreated cell line” value (markers of Table 1, quotient of Ave-LPA divided by Ave-OVCAR3) does the source give for lysophosphatidic acid [LPA] here?
Its value is “at least 2.5 fold”.

And the “UPinOVCAR3 vs LPA: marker expression in the untreated OVCAR3 cell line as compared to the cell line treated with LPA” value (markers of Table 2, quotient of Ave-OVCAR3 divided by Ave-LPA)?
The value was “at least 4 fold”.
